Data from the NIST ThermoML archive (doi:10.1016/j.jct.2006.05.007).

Conditions: Liquid

CCOC(C)(C)C [2-ethoxy-2-methylpropane]
Twin ebulliometer
Conditions	vapor or sublimation pressure [kPa]
298.25 K	16.83
303.13 K	20.88
307.44 K	25.07
312.55 K	30.91
317.29 K	37.26
322.74 K	45.83
328.3 K	56.12
333.56 K	67.49
339.17 K	81.57
343.23 K	93.18
343.89 K	95.31
344.57 K	97.44
345.25 K	99.6
345.92 K	101.69

CC(C)COC(C)(C)C [isobutyl tert-butyl ether]
Ebulliometric method (Recirculating still)
Conditions	vapor or sublimation pressure [kPa]
310.61 K	6.234
317.06 K	8.426
322.6 K	10.8
327.65 K	13.43
333.13 K	16.83
338.55 K	20.88
343.33 K	25.07
349 K	30.91
354.26 K	37.26
360.31 K	45.83
366.48 K	56.12
372.35 K	67.49
378.59 K	81.57
383.13 K	93.18
383.92 K	95.31
384.69 K	97.44
385.45 K	99.6

CC(C)OC(C)C [diisopropyl ether]
Twin ebulliometer
Conditions	vapor or sublimation pressure [kPa]
308.58 K	30.91
313.25 K	37.26
318.65 K	45.83
324.17 K	56.12
329.4 K	67.49
334.98 K	81.57
339.03 K	93.18
339.73 K	95.31
340.41 K	97.44
